Measurements: PubChem BioAssay (NCI)
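How tested: cells in 96-well plates exposed to compound for 48 hours at five concentrations. At the GI50, growth is halved. TGI: total growth inhibition.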

Assays:
Test in all cases: DTP human tumour cell line panel, 48 h
[1] = tested on: KM12 colon
[2] = tested on: SK-MEL-28 melanoma
[3] = tested on: NCI/ADR-RES ovarian
[4] = tested on: BT-549 breast
[5] = tested on: HL-60(TB) leukemia
[6] = tested on: MDA-MB-231 breast
[7] = tested on: CCRF-CEM leukemia
[8] = tested on: SR leukemia
[9] = tested on: A549 NSCLC
[10] = tested on: HCC-2998 colon
[11] = tested on: SN12C renal
[12] = tested on: OVCAR-5 ovarian
[13] = tested on: COLO 205 colon
[14] = tested on: SF-295 CNS
[15] = tested on: UACC-62 melanoma
[16] = tested on: HCT-15 colon
[17] = tested on: SK-OV-3 ovarian
[18] = tested on: LOX IMVI melanoma
[19] = tested on: NCI-H460 lung
[20] = tested on: A498 renal
[21] = tested on: 786-0 renal
[22] = tested on: SF-539 CNS
[23] = tested on: RXF 393 renal
[24] = tested on: MDA-MB-435
[25] = tested on: U251 CNS
[26] = tested on: IGROV1 ovarian
[27] = tested on: TK-10 renal
[28] = tested on: EKVX NSCLC
[29] = tested on: HOP-62 NSCLC
[30] = tested on: K-562 leukemia
[31] = tested on: ACHN renal
[32] = tested on: SF-268 CNS
[33] = tested on: MALME-3M melanoma
[34] = tested on: OVCAR-8 ovarian
[35] = tested on: SNB-19 CNS
[36] = tested on: SK-MEL-5 melanoma
[37] = tested on: NCI-H226 lung
[38] = tested on: HT29 colon
[39] = tested on: SK-MEL-2 melanoma
[40] = tested on: HCT-116 colon
[41] = tested on: UO-31 renal
[42] = tested on: MOLT-4 leukemia
[43] = tested on: OVCAR-4 ovarian
[44] = tested on: HOP-92 NSCLC
[45] = tested on: SNB-75 CNS

In the case of `Cc1nc2ccccc2c(/C=C/c2ccccc2)c1C(=O)/C=C/c1ccccc1`, the GI50 [1] is reported as 1970 nM, the TGI [1] is reported as 4700 nM and the GI50 [2] is reported as 1830 nM. It also gave a TGI [2] of 3300 nM, a GI50 [3] of 2710 nM and a TGI [3] of 8350 nM. It also gave a GI50 [4] of 1730 nM, a TGI [4] of 3670 nM and a GI50 [5] of 2450 nM. For the same compound, the TGI [5] was 6510 nM, the GI50 [6] was 2300 nM and the TGI [6] was 7370 nM. The GI50 [7] was 2510 nM, the TGI [7] was over 100000 nM and the GI50 [8] was 1780 nM. The TGI [8] was over 100000 nM, the GI50 [9] was 2290 nM and the TGI [9] was 6060 nM. The GI50 [10] was 1860 nM, the TGI [10] was 3530 nM and the GI50 [11] was 1900 nM. For the same compound, the TGI [11] was 4070 nM, the GI50 [12] was 1930 nM and the TGI [12] was 3520 nM. The GI50 [13] was 1820 nM, the TGI [13] was 4440 nM and the GI50 [14] was 2800 nM. For the same compound, the TGI [14] was 8360 nM, the GI50 [15] was 1770 nM and the TGI [15] was 3230 nM. The GI50 [16] was 1560 nM, the TGI [16] was 4400 nM and the GI50 [17] was 3920 nM. The TGI [17] was over 100000 nM, the GI50 [18] was 1770 nM and the TGI [18] was 3190 nM. The GI50 [19] was 1880 nM, the TGI [19] was 4880 nM and the GI50 [20] was 1830 nM. The TGI [20] was 3460 nM, the GI50 [21] was 1610 nM and the TGI [21] was 3020 nM. It also gave a GI50 [22] of 1760 nM, a TGI [22] of 3190 nM and a GI50 [23] of 1780 nM. The TGI [23] was 3220 nM, the GI50 [24] was 2360 nM and the TGI [24] was 6710 nM. The GI50 [25] was 1570 nM, the TGI [25] was 2930 nM and the GI50 [26] was 1840 nM. It also gave a TGI [26] of 6180 nM, a GI50 [27] of 2580 nM and a TGI [27] of 6810 nM. It also gave a GI50 [28] of 1750 nM, a TGI [28] of 3280 nM and a GI50 [29] of 1900 nM. The TGI [29] was 4100 nM, the GI50 [30] was 2840 nM and the TGI [30] was over 100000 nM. For the same compound, the GI50 [31] was 1860 nM, the TGI [31] was 3620 nM and the GI50 [32] was 2140 nM. It also gave a TGI [32] of 6240 nM, a GI50 [33] of 1760 nM and a TGI [33] of 3240 nM. For the same compound, the GI50 [34] was 2110 nM, the TGI [34] was 5670 nM and the GI50 [35] was 1600 nM. The TGI [35] was 2960 nM, the GI50 [36] was 1770 nM and the TGI [36] was 3170 nM. For the same compound, the GI50 [37] was 2160 nM, the TGI [37] was 5270 nM and the GI50 [38] was 2610 nM. For the same compound, the TGI [38] was 12000 nM, the GI50 [39] was 1920 nM and the TGI [39] was 4080 nM. The GI50 [40] was 1110 nM, the TGI [40] was 2560 nM and the GI50 [41] was 1330 nM. For the same compound, the TGI [41] was 2610 nM.
With `C[C@]12CCc3sc(Nc4ccc(F)cc4F)nc3C1=CC[C@@H]1[C@@H]2CC[C@]2(C)C(=O)CC[C@@H]12` the GI50 [42] was 2440 nM, the TGI [42] was over 100000 nM and the GI50 [30] was 2430 nM. For the same compound, the TGI [30] was over 100000 nM, the GI50 [34] was 2960 nM and the TGI [34] was over 100000 nM.
`O=[N+]([O-])c1ccc(C2CC3(c4ccccc4)ON=C(c4ccccc4)N3c3ccccc3S2)cc1` (centres undefined) showed a GI50 [43] of 76100 nM, a GI50 [14] of 80800 nM and a GI50 [22] of 68900 nM. The GI50 [27] was 14.9 nM, the TGI [27] was 7950 nM and the GI50 [29] was 58900 nM. The GI50 [44] was 78200 nM, the GI50 [30] was 83600 nM and the GI50 [45] was 37400 nM. The GI50 [39] was 40300 nM and the GI50 [40] was 19700 nM.
